Experimental data as given in patent US20140073694A1, “CYSTAMINE ANALOGUES FOR THE TREATMENT OF PARKINSON'S DISEASE” (UNIVERSITE LAVAL, priority 2011, published 2014).

Legend:
[1] = test system: 6-OHDA lesioned mice; test: Unilateral striatal 6-OHDA mouse model, neurorescue experiment; type: in vivo, C57BL/6 mice; conditions: 10 mg/kg daily for 14 days from 3 days post-lesion
Method: Young adult (9-week old, 25 grams) male C57BL/6 mice were purchased from Charles River Laboratories (Montréal, QC, Canada). Animals were housed 4 per cage under standard conditions with free access to food and water, randomized and handled under the same conditions by one investigator. All experiments were performed in accordance with the Canadian Council on Animal Care and were approved by the Institutional Committee of the Centre Hospitalier de l'Université Laval (CHUL). Throughout the experiment, the health status of all mice included in the study was closely monitored for weight loss or other signs of health-related issues. All efforts were made to minimize animal pain and discomfort.
This protocol was based on the unilateral stereotaxic intra-striatal injection of 6-hydroxydopamine (6-OHDA). Intrastriatal administration of 6-OHDA creates a progressive and retrograde degenerative changes in DA neurons of the substantia nigra (Bjorklund et al., 1997; Costantini et al., 2001). Mice were anaesthetized using isoflurane and placed onto a stereotactic frame adapted for mice. 6-OHDA was dissolved at a concentration of 2 μg/μl in 0.9% saline and 0.02% ascorbic acid and 2 μl was injected in the right striatum at a rate of 0.5 μl/min. The needle was left in place for 3 min after the injection before retraction. The injection was performed using an Hamilton syringe according to the stereotaxic co-ordinates: AP: +0.04 cm, ML: −0.18 cm, DV: −0.31 cm (corresponding to the atlas of Allan P. 2008).
To serve as controls, other mice were subjected to the same surgical procedures, but only 2 μl of solvent (0.9% saline and 0.02% ascorbic acid) was injected in the same coordinates. […]
The effects of cystamine on the 6-OHDA toxicity were studied in the following experimental groups: Group I, Sham+Saline; Group II, 6-OHDA+Saline; Group III; Sham+Cystamine; Group IV, 6-OHDA+Cystamine. In total, 40 mice (n=10 per group) were utilized for each experiment, monitored daily for weight variation, and ultimately sacrificed by perfusion 24 hrs after the last cystamine (or vehicle) injection. […]
Catecholamine quantification by HPLC, TH immunohistochemistry and in situ hybridization for Nurr1 and DAT were conducted as described in Example 1.
Levels of autoradiographic labelling were quantified by computerized densitometry. […] Optical density of the autoradiograms was translated in μCi/g of tissue using ^14C radioactivity standards (ARC 146-^14C standards, American Radiolabelled Chemicals Inc., St. Louis, Mo.). Nurr1 and DAT mRNA levels were measured in the substantia nigra compacta (SNc) using similar antero-posterior levels for all sections. […]

[2] = parameters: species or system C57BL/6 mice; conditions: in vivo, ip, 200 mg/kg
Method: Young adult (9-week old, 25 g) male C57BL/6 mice were purchased from Charles River Laboratories (Montréal, QC, Canada). Animals were housed four per cage under standard conditions with free access to food and water, randomized and handled under the same conditions by one investigator. All experiments were performed in accordance with the Canadian Council on Animal Care and were approved by the Institutional Committee of the Centre Hospitalier de l'Université Laval (CHUL). Throughout the experiment, the health status of all mice included in the study was closely monitored. To clearly identify the active intermediate following cystamine injection, as well as to understand its systemic and cerebral metabolism, a single intraperitoneal (i.p.) injection of cystamine was administered to normal adult C57BL/6 male mice using three different doses: 10, 50, and 200 mg/kg, as determined in prior publications (Tremblay et al. 2006; Gibrat et al. 2010). These doses were ultimately compared with saline injections. Cystamine was dissolved in sterile saline (0.9%) and injected 1, 3, 12, 24 and 48 h before killing. Animals were sacrificed under deep anesthesia with ketamine/xylazine and perfused via intracardiac infusion with 0.1 M phosphate-buffered saline. […]

NCCSSCCN [cystamine, Cystamine]
DAT mRNA levels in the SNpc (densitometry) [1]: same pattern as observed for the TH staining | Nurr1 mRNA levels in the SNpc (densitometry) [1]: same pattern as observed for the TH staining | striatal DA content by HPLC ([1]; vs control mice): significantly decreased levels of DA only in 6-OHDA mice treated with saline | decrease in the total number of TH-positive neurons in the SNpc ([1]; 6-OHDA+cystamine vs sham+cystamine): 27% | duration of hypothermia and somnolence signs ([2]; male, C57BL/6, mouse): approximately 2 h | clinical signs ([2]; mouse): signs of hypothermia (shivering) and somnolence (closing of eyelids)
